Experiments:
ABCD3 = ABCD3 mRNA expression (real-time PCR); assay type: cell-based, human; details: A2780/DOX
Procedure: (§1) The A2780/DOX cell line was seeded into 5 cm Petri dishes with DMEM medium at 1 × 10^5 cell/mL. After 24 h, the dishes were washed with PBS and new DMEM medium supplemented with doxorubicin (at concentration equal to IC25) and samples (10 µM) were added. After 48 h of treatment, the cells were washed with PBS and harvested using the standard trypsin-EDTA procedure. The harvested cells were centrifuged (3200× g; 10 min, 4 °C). The supernatant was discarded, and the pellets were washed with 1.5 mL of cooled PBS (5400× g; 10 min, 4 °C). The washing step was repeated with 1 mL of PBS and the cells were centrifuged again (10,000× g; 3 min, 4 °C). Afterwards, the pellets were resuspended in 1 mL of Trizol (Invitrogen, Carlsbad, CA, USA) and transferred into pre-cooled RNase-free microfuge tubes. The samples were stored at −80 °C.
(§2) A Quant-iT RiboGreen RNA Assay Kit (Invitrogen) was used to determine the RNA concentration using the Infinite M200 plate reader (Tecan, Männedor, Switzerland). The cDNA was prepared from 0.5 µg of total RNA using a RevertAid First Strand Synthesis cDNA Kit (MBI Fermentas, Vilnius, Lithuania). The amplification of the ubiquitin C gene fragment was used to determine the quality of cDNA.
(§3) The experiment was performed using the ViiA7 Real-Time polymerase chain reaction (PCR) System (Life Technologies, Camarillo, CA, USA) with a 384-well block. Before quantitative real-time PCR, the master mix was prepared by mixing 2 µL of 8 × diluted cDNA, 1.75 µL of RNase free water, 1 µL of 5 × HotFIREPol Probe quantitative PCR Mix Plus (Solis Biodyne, Tartu, Estonia) and 0.25 µL of specific 20 × TaqMan Gene Expression Assay (Life Technologies), giving 5 µL of final reaction volume. Cycling parameters were: initial hold at 50 °C for 2 min and denaturation at 95 °C for 10 min, followed by 45 cycles consisting of denaturation at 95 °C for 15 s and annealing/extension at 60 °C for 1 min. After each extension phase, the fluorescence values were acquired. Duplicate samples were used for measurement and samples with a standard deviation of duplicates > 1.0 cycle threshold (Ct) were re-analyzed. The real time PCR procedure was maintained according to MIQE (Minimum information for publication of quantitative real-time PCR experiments) guidelines. The software REST 2009 (Qiagen, Hilden, Germany) served to compare relative transcript levels of genes in the cell line.

A2780/DOX = experiment: Viability of A2780/DOX cells (resazurin); details: Homo sapiens, A2780, read-out: IC50 (µM), concentration necessary to halve cell viability
Procedure: To determine the NO production, the medium was mixed with Griess reagent (0.04 g/mL, prepared in deionized water) in a 1:1 ratio. After 15 min, absorbance was recorded at 540 nm. To determine cell viability, the resazurin solution (0.03 mg/mL in PBS) was added to the cells. After 2 h of incubation, fluorescence was recorded (560/590 nm, ex./em.).
A multidrug resistant ovarian sub-line resistant to doxorubicin (A2780/DOX, Sigma-Aldrich) was cultivated in DMEM medium with 10% FBS and 1 × antibiotic antimycotic solution. Every other passage, doxorubicin at the final concentration of 0.1 µM was added to the culture medium to maintain the resistance of the cell line. To perform experiments, the cells were seeded at 1 × 10^5 cell/mL into the wells of a 96-well plate and incubated for 24 h. Afterwards, the cells were washed with PBS and fresh DMEM medium with tested compounds at 10, 20 and 30 µM were added to each well, except for the control wells. Subsequently, the cells were exposed to increasing concentrations of doxorubicin (0.6–20 µM) for 72 h. After incubation, the resazurin assay was performed as described above. The IC50 of doxorubicin was calculated for both the control and the samples and the fold change was counted up. […] The fold change lower than 1 means an antagonistic effect. (1) FOLD CHANGE=IC50 value of DOX cells treated with chemotherapeutic /IC50 value of DOX cells treated with chemotherapeutic and compound

acetylcholinesterase = acetylcholinesterase (Homo sapiens, UniProt P22303); experiment: Acetylcholinesterase activity, Ellman colorimetric method; assay type: biochemical
Sequence of acetylcholinesterase (P22303 32-614, species assumed): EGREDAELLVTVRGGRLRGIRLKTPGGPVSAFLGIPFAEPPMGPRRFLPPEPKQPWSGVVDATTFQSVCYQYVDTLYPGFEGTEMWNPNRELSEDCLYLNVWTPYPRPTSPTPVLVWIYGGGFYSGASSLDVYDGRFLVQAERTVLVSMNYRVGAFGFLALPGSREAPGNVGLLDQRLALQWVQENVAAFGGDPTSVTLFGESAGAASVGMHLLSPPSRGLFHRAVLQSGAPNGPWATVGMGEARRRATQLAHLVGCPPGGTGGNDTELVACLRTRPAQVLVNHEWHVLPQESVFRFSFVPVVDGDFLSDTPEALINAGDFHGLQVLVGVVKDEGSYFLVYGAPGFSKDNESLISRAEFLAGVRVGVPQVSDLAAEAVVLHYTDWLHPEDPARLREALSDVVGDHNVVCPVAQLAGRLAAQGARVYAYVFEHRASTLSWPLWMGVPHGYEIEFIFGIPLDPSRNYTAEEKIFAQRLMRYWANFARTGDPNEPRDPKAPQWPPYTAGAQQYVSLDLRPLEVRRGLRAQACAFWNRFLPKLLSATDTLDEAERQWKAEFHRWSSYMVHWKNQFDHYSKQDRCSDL
Procedure: The activity of acetylcholinesterase was measured by the Ellman colorimetric method. A stock solution of acetylcholinesterase was prepared in PBS (0.057 U/mL), 100× diluted and stored in a freezer (−20 °C). Further, the solution of DTNB (5,5′-dithio-bis-2-nitrobenzoic acid, 50 µM) and ATC ([…], 50 µM) was prepared. […] Afterwards, 10 µL of DNTB and ATC solution was added, and the reaction was launched. After the addition of reagents, the absorbance at 412 nm was recorded for 10 min every minute.

human recombinant P-gp = biological target: T1, human recombinant P-gp (Homo sapiens, UniProt P08183); experiment: biochemical
T1 construct: purchased Promega
T1 sequence (P08183 whole entry): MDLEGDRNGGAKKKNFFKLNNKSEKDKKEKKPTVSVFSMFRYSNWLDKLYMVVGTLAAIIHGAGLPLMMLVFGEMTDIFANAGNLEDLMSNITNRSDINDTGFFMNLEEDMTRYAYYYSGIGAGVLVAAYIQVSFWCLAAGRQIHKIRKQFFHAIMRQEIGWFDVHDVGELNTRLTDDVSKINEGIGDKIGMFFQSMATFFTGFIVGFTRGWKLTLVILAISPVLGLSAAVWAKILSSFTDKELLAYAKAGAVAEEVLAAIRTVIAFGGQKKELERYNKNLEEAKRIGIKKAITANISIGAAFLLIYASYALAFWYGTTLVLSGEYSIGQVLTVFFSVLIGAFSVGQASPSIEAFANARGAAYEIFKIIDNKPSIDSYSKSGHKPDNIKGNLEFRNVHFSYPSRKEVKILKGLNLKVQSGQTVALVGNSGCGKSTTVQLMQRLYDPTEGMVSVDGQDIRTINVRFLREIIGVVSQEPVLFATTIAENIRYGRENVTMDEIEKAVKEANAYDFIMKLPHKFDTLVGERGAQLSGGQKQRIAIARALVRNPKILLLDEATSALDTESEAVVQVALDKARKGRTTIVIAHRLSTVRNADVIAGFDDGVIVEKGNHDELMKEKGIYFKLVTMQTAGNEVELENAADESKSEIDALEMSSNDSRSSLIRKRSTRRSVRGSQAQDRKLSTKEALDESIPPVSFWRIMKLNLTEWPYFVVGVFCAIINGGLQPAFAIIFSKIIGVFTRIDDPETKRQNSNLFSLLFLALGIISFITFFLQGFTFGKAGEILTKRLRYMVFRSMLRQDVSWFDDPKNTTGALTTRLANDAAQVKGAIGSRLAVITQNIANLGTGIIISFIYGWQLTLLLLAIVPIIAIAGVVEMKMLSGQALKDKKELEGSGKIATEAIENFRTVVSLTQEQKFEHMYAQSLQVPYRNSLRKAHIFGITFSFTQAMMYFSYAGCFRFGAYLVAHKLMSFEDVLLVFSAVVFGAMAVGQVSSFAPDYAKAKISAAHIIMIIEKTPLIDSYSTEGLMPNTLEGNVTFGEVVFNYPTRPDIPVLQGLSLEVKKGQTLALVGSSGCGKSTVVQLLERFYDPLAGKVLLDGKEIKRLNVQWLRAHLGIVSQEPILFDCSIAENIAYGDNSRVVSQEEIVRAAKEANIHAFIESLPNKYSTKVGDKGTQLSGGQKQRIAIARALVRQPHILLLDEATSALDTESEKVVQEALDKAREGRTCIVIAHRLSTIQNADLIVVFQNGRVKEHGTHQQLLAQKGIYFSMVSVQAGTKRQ
Procedure: The procedure and the dilution of the reagents were performed according to the manufacturer’s instructions. Briefly, the human recombinant P-gp-containing membrane (25 µg) was mixed in a 96-well plate with P-gp–Glo™ Assay buffer (control), verapamil (P-gp substrate, positive control, 0.2 mM), Na3VO4 (P-gp inhibitor, negative control, 0.1 mM), ATP standards (to construct the calibration curve, 0.375–3 mM) or samples (2.5 µL, in the concentration range 0.7–20 mM). After that, MgATP (5 mM) was added to total volume of 50 µL to each well to initiate the ATPase reaction. The plate was incubated for 1 h at 37 °C. Thereafter, the reaction was stopped by adding 50 µL of ATP detection reagent and incubated at room temperature for 20 min. The remaining non-metabolized ATP was detected as a luciferase-generated signal.
Using linear regression, the standard ATP curve was designed, and by subsequent interpolation of relative luminescence (RLU) of standards, the amount of ATP consumed in the samples was recalculated according to the manufacturer’s guidelines.

ABCB9 = ABCB9 mRNA expression (real-time PCR); assay type: cell-based, human; details: A2780/DOX, 10 µM combined with doxorubicin at IC25, 48 h
Procedure: as §1, §2, §3

ABCG2 (BCRP) = experiment: ABCG2 mRNA expression (real-time PCR); assay type: cell-based, human
Procedure: as §1, with “After 24 h, the dishes were washed with PBS and new DMEM medium supplemented with doxorubicin (at concentration equal to IC25) and samples (10 µM) were added.” left out
as §2, §3

[1] = 10 µM combined with doxorubicin at IC25, 48 h
[2] = A2780/DOX, 10 µM combined with doxorubicin at IC25, 48 h
[3] = 10 µM, 48 h, without doxorubicin
[4] = A2780/DOX, 10 µM, 48 h, without doxorubicin

| SMILES | ABCD3 Expression Difference (ABCD3; [1]) | IC50 (A2780/DOX) | IC50 (acetylcholinesterase) | IC50 (human recombinant P-gp) | ABCB9 Expression Difference (ABCB9) | ABCG2 Expression Difference (ABCG2 (BCRP); [2]) | ABCD3 Expression Difference (ABCD3; [3]) | ABCD3 Treated vs. Untreated (ABCD3; [3]) | downregulation of ABCG2 (BCRP) expression (ABCG2 (BCRP); [3]) | ABCG2 Expression Difference (ABCG2 (BCRP); [4]) | ABCG2 Treated vs. Untreated (ABCG2 (BCRP); [4]) | inhibition of acetylcholinesterase activity relative to single isomers (acetylcholinesterase) |
| --- | --- | --- | --- | --- | --- | --- | --- | --- | --- | --- | --- | --- |
| COc1cc([C@H]2Oc3cc(-c4oc5cc(O)cc(O)c5c(=O)c4O)ccc3O[C@@H]2CO)ccc1O [Dehydrosilybin A, 2,3-dehydrosilybin A] | 1.043 | 74.4 ± 4.8 µM | 6.9 ± 0.6 µM | 60.7 ± 10 µM | 1.109 | 1.259 | – | – | – | – | – | – |
| COc1cc([C@@H]2Oc3cc([C@H]4Oc5cc(O)cc(O)c5C(=O)[C@@H]4O)ccc3O[C@H]2CO)ccc1O [Silybin B, silybin B] | – | 194 ± 8.8 µM | 83.7 ± 6.4 µM | 51.9 ± 2.1 µM | 1.241 | 1.902 | 0.337 | DOWN | 67% | 0.335 | DOWN | – |
| COc1cc(C2Oc3cc(-c4oc5cc(O)cc(O)c5c(=O)c4O)ccc3OC2CO)ccc1O (centres unmarked) [Dehydrosilybin AB, 2,3-dehydrosilybin] | 1.288 | 33.6 ± 0.4 µM | 2.7 ± 0.3 µM | 21.1 ± 0.6 µM | 1.149 | 1.698 | 1.545 | – | – | 1.921 | – | 2.5 × |
| COc1cc([C@@H]2Oc3cc(-c4oc5cc(O)cc(O)c5c(=O)c4O)ccc3O[C@H]2CO)ccc1O [Dehydrosilybin B, 2,3-dehydrosilybin B] | 1.347 | 27.1 ± 0.4 µM | 6.8 ± 0.8 µM | 40.7 ± 3.8 µM | 1.218 | 1.948 | – | – | – | – | – | – |
| COc1cc([C@H]2Oc3cc([C@H]4Oc5cc(O)cc(O)c5C(=O)[C@@H]4O)ccc3O[C@@H]2CO)ccc1O [Silybin A, silybin A] | 1.637 | 252 ± 7.6 µM | 181 ± 6.1 µM | 43.1 ± 6.4 µM | 1.586 | 2.415 | – | – | – | – | – | – |
| COc1cc(C2Oc3cc([C@H]4Oc5cc(O)cc(O)c5C(=O)[C@@H]4O)ccc3OC2CO)ccc1O (some centres unmarked) [Silybin AB, silybin] | 1.560 | 197 ± 4 µM | 22.6 ± 1.4 µM | 32.6 ± 3.6 µM | 1.638 | 2.373 | 2.181 | – | – | – | – | – |

Reference: paper PMC7278776, “Multidrug Resistance Modulation Activity of Silybin Derivatives and Their Anti-Inflammatory Potential” (Antioxidants, 2020)
